# How the values were obtained:
# Assay in all cases: relative viability (nuclei count vs DMSO), 5 days (fraction); higher = more cells survive
# [1] = compound: N=C1NC(=O)/C(=C/c2ccc(O)cc2)S1 [Mirin] + CC(=O)Nc1cccc(-n2c(=O)n(C3CC3)c(=O)c3c(Nc4ccc(I)cc4F)n(C)c(=O)c(C)c32)c1 [Trametinib] (partner 0.02 µM)
# Outline: (§1)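 One day after seeding in 1536-well plates, lung cancer cell lines were dosed by pin tool. Dosing was either single-drug or a fixed anchor-drug dose plus five library-drug doses (not always all listed) in √10 steps. After 5 days, nuclei were stained in one fix-and-stain step and counted on 4× images, and relative viability is the nuclei count of treated wells over that of vehicle wells, given as the median of duplicate plates.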
# [2] = compound: CCn1c(-c2nonc2N)nc2cnc(Oc3cccc(NC(=O)c4ccc(OCCN5CCOCC5)cc4)c3)cc21 + Cc1nc(Nc2ncc(C(=O)Nc3c(C)cccc3Cl)s2)cc(N2CCN(CCO)CC2)n1 [Dasatinib] (partner 0.075 µM)
# Outline: as §1
# [3] = compound: N=C1NC(=O)/C(=C/c2ccc(O)cc2)S1 [Mirin] + CC(C)C[C@H](NC(=O)[C@H](Cc1ccccc1)NC(=O)c1cnccn1)B(O)O [Bortezomib] (partner 0.002 µM)
# Outline: as §1
# [4] = compound: CCC1=CN=CN=C1N2CCN(CC2)CC3=NC4=C(N3)C=C(C=C4)C(F)(F)F + Nc1ncn([C@H]2C[C@H](O)[C@@H](CO)O2)c(=O)n1 [Decitabine] (partner 2 µM)
# Outline: as §1
Cell Line,relative viability ([1]; first compound 0.25 µM),relative viability ([1]; first compound 0.7906 µM),relative viability ([1]; first compound 2.5 µM),relative viability ([1]; first compound 7.906 µM),relative viability ([1]; first compound 25 µM),relative viability ([2]; first compound 0.04 µM),relative viability ([2]; first compound 0.1265 µM),relative viability ([2]; first compound 0.4 µM),relative viability ([2]; first compound 1.265 µM),relative viability ([2]; first compound 4 µM),relative viability ([3]; first compound 0.25 µM),relative viability ([3]; first compound 0.7906 µM),relative viability ([3]; first compound 2.5 µM),relative viability ([3]; first compound 7.906 µM),relative viability ([3]; first compound 25 µM),relative viability ([4]; first compound 0.04 µM),relative viability ([4]; first compound 0.1265 µM),relative viability ([4]; first compound 0.4 µM),relative viability ([4]; first compound 1.265 µM),relative viability ([4]; first compound 4 µM)
NCI-H1734,0.688,0.749,0.646,0.633,0.675,0.416,0.39,0.232,0.229,0.198,0.952,0.778,0.987,0.831,0.793,0.458,0.465,0.566,0.499,0.489
A-427,0.734,0.647,0.718,0.677,0.706,0.694,0.487,0.375,0.269,0.224,0.97,,1.01,1.03,1.02,0.55,0.548,0.556,0.535,0.599
SK-LU-1,0.519,0.519,0.568,0.383,0.538,0.157,0.15,0.103,0.139,0.128,1.22,1.22,1.19,,1.15,0.512,0.6,0.623,0.605,0.614
NCI-H838,0.548,0.577,0.52,0.528,0.513,0.314,0.192,0.199,0.208,0.183,0.865,0.521,0.884,0.78,0.738,0.418,0.408,0.475,0.433,0.444
LCLC-97TM1,0.172,0.179,0.235,0.176,0.165,0.969,0.929,0.673,0.99,0.811,0.589,,0.582,0.278,0.868,0.24,0.205,0.225,0.227,0.215
BEN,0.942,1.01,1.16,0.825,0.591,0.276,0.238,0.174,0.186,0.232,0.638,0.779,0.967,0.625,0.548,0.638,0.61,0.703,0.548,0.508
NCI-H2023,0.716,0.558,0.668,0.56,0.597,0.519,0.424,0.257,0.294,0.232,1.13,0.807,1,1.05,0.926,0.21,0.218,0.224,0.215,0.252
LC-2-ad,0.964,1.06,0.979,0.906,0.945,0.957,0.717,0.343,0.309,0.479,0.996,1.07,1.03,0.907,1.03,0.929,0.816,0.792,0.774,0.768
NCI-H650,1.08,0.93,0.938,0.968,0.88,0.4,0.317,0.216,0.248,0.276,0.915,,0.84,,0.937,0.313,0.306,0.328,0.271,0.287
NCI-H1755,0.745,0.793,0.755,0.771,0.841,0.373,0.257,0.15,0.206,0.186,0.951,1.03,0.979,0.873,1.11,0.759,0.693,0.729,0.72,0.759
EPLC-272H,0.308,,0.281,0.3,0.317,0.513,0.326,0.159,0.263,0.227,0.962,,1.04,0.714,0.826,0.347,0.319,0.388,0.288,0.406
NCI-H1437,0.597,0.46,0.555,0.519,0.399,0.629,0.373,0.148,0.363,0.35,0.498,0.436,0.438,0.41,0.472,0.537,0.529,0.531,0.589,0.487
EKVX,0.373,0.246,0.382,0.35,0.376,0.565,0.277,0.434,0.457,0.427,1.05,0.979,1,1.03,1.04,0.264,0.289,0.328,0.344,0.335
NCI-H1651,0.809,0.875,0.886,0.767,0.855,0.499,0.369,0.229,0.247,0.267,0.912,0.959,0.931,0.854,0.916,0.623,0.413,0.667,0.602,0.581
HCC-15,0.341,0.368,0.363,0.368,0.365,0.618,0.464,0.349,,0.395,1.02,0.928,1.03,0.893,0.949,0.537,0.558,0.633,0.608,0.575
LCLC-103H,0.744,0.799,0.735,0.735,0.833,0.532,0.37,0.134,0.227,0.178,1.12,1.07,0.959,1.23,1.12,0.708,0.698,0.712,0.748,0.728
NCI-H2347,0.301,0.313,0.26,0.3,0.274,0.402,0.436,0.286,0.374,0.349,0.824,1.02,1.32,0.639,1.01,0.666,0.551,0.63,0.613,0.529

# Reference: the supplement of paper PMC10307832
